{"source": "paper PMC5218480", "about": "(PLoS ONE, 2017)", "tested_on": "MV-4-11 cells", "assay": "Gene expression microarray analysis (Affymetrix PrimeView) and GSEA", "type": "cell-based, human", "set-up": "RFU PODN (11730768_x_at) / Fold change /veh PODN (11730768_x_at) / RFU LINC00158 (11744669_a_at) / Fold change /veh LINC00158 (11744669_a_at) / RFU DUSP10 (11751237_a_at) / Fold change /veh DUSP10 (11751237_a_at) / RFU ID3 (11757404_x_at) / Fold change /veh ID3 (11757404_x_at) / RFU PLEKHG5 (11737974_s_at) / Fold change /veh PLEKHG5 (11737974_s_at) / RFU LRRC4B (11730491_at) / Fold change /veh LRRC4B (11730491_at) / RFU GIMAP4 (11747438_a_at) / Fold change /veh GIMAP4 (11747438_a_at) / RFU KRT8 (11758183_x_at) / Fold change /veh KRT8 (11758183_x_at) / RFU CNN1 (11734310_a_at) / Fold change /veh CNN1 (11734310_a_at) / RFU VPS37D (11726825_at) / Fold change /veh VPS37D (11726825_at) / RFU C10orf10 (11716522_x_at) / Fold change /veh C10orf10 (11716522_x_at) / RFU KIR2DL2 /// KIR2DL4 /// KIR2DL5A /// KIR2DL5B /// KIR2DS1 /// KIR2DS2 /// KIR2DS3 /// KIR2DS4 /// KIR3DL3 /// KIR3DL3 /// KIR3DS1 (11738374_at) / Fold change /veh KIR2DL2 /// KIR2DL4 /// KIR2DL5A /// KIR2DL5B /// KIR2DS1 /// KIR2DS2 /// KIR2DS3 /// KIR2DS4 /// KIR3DL3 /// KIR3DL3 /// KIR3DS1 (11738374_at) / RFU C1QL1 (11718748_at) / Fold change /veh C1QL1 (11718748_at) / RFU TMPRSS4 (11747572_a_at) / Fold change /veh TMPRSS4 (11747572_a_at) / RFU HAMP (11756126_x_at) / Fold change /veh HAMP (11756126_x_at) / RFU RNFT2 (11725882_a_at) / Fold change /veh RNFT2 (11725882_a_at) / RFU NR4A2 (11747474_a_at) / Fold change /veh NR4A2 (11747474_a_at) / RFU ABCC12 (11746883_a_at) / Fold change /veh ABCC12 (11746883_a_at) / RFU TMEM136 (11760407_x_at) / Fold change /veh TMEM136 (11760407_x_at) / RFU CLDN22 /// WWC2 (11732394_at) / Fold change /veh CLDN22 /// WWC2 (11732394_at) / RFU HLA-DPB1 (11760878_x_at) / Fold change /veh HLA-DPB1 (11760878_x_at) / RFU SPINT1 (11716480_a_at) / Fold change /veh SPINT1 (11716480_a_at) / RFU GAP43 (11754022_s_at) / Fold change /veh GAP43 (11754022_s_at) / RFU A4GNT (11735810_at) / Fold change /veh A4GNT (11735810_at) / RFU PRB3 (11715151_x_at) / Fold change /veh PRB3 (11715151_x_at) / RFU TUBB4B (11761932_at) / Fold change /veh TUBB4B (11761932_at) / RFU CAPN14 (11732068_a_at) / Fold change /veh CAPN14 (11732068_a_at) / RFU TMCC2 (11721928_a_at) / Fold change /veh TMCC2 (11721928_a_at) / RFU IRGQ (11745062_a_at) / Fold change /veh IRGQ (11745062_a_at) / RFU FAM174B (11720279_a_at) / Fold change /veh FAM174B (11720279_a_at) / RFU TMPRSS4 (11748680_a_at) / Fold change /veh TMPRSS4 (11748680_a_at) / RFU FAM212B (11763350_a_at) / Fold change /veh FAM212B (11763350_a_at) / RFU PLEKHG5 (11743358_a_at) / Fold change /veh PLEKHG5 (11743358_a_at) / RFU ZSCAN30 (11745921_a_at) / Fold change /veh ZSCAN30 (11745921_a_at) / RFU CMKLR1 (11741424_a_at) / Fold change /veh CMKLR1 (11741424_a_at) / RFU LOC101060620 /// MAPK8IP1 (11723275_at) / Fold change /veh LOC101060620 /// MAPK8IP1 (11723275_at) / RFU SPTSSB (11747773_x_at) / Fold change /veh SPTSSB (11747773_x_at) / RFU PRSS12 (11739890_at) / Fold change /veh PRSS12 (11739890_at) / RFU BIN1 (11741810_x_at) / Fold change /veh BIN1 (11741810_x_at) / RFU WNT11 (11732464_a_at) / Fold change /veh WNT11 (11732464_a_at) / RFU C10orf10 (11716521_a_at) / Fold change /veh C10orf10 (11716521_a_at) / RFU C5orf56 (11738089_at) / Fold change /veh C5orf56 (11738089_at) / RFU CYB561 (11721691_x_at) / Fold change /veh CYB561 (11721691_x_at) / RFU ANKRD19P (11752326_a_at) / Fold change /veh ANKRD19P (11752326_a_at) / RFU OR2T12 /// OR2T33 /// OR2T8 (11738714_s_at) / Fold change /veh OR2T12 /// OR2T33 /// OR2T8 (11738714_s_at) / RFU VCAN (11748164_a_at) / Fold change /veh VCAN (11748164_a_at) / RFU JSRP1 (11732532_at) / Fold change /veh JSRP1 (11732532_at) / RFU KRTAP10-11 (11738290_x_at) / Fold change /veh KRTAP10-11 (11738290_x_at) / RFU MYO3A (11730013_a_at) / Fold change /veh MYO3A (11730013_a_at) / RFU EBF3 (11725865_a_at) / Fold change /veh EBF3 (11725865_a_at) / RFU CAMK2N1 (11719241_x_at) / Fold change /veh CAMK2N1 (11719241_x_at) / RFU C5orf56 (11738088_a_at) / Fold change /veh C5orf56 (11738088_a_at) / RFU OLFML3 (11715873_a_at) / Fold change /veh OLFML3 (11715873_a_at) / RFU LOC100653217 /// NTM (11731650_a_at) / Fold change /veh LOC100653217 /// NTM (11731650_a_at) / RFU MAPK11 (11762145_a_at) / Fold change /veh MAPK11 (11762145_a_at) / RFU FIZ1 (11724087_x_at) / Fold change /veh FIZ1 (11724087_x_at) / RFU OASL (11726364_x_at) / Fold change /veh OASL (11726364_x_at) / RFU SOX15 (11748057_x_at) / Fold change /veh SOX15 (11748057_x_at) / RFU CD79A (11719716_a_at) / Fold change /veh CD79A (11719716_a_at) / RFU HIST1H1D (11736915_at) / Fold change /veh HIST1H1D (11736915_at) / RFU CASKIN2 (11723855_a_at) / Fold change /veh CASKIN2 (11723855_a_at) / RFU LOC730098 (11760151_x_at) / Fold change /veh LOC730098 (11760151_x_at) / RFU OR4N2 (11742367_at) / Fold change /veh OR4N2 (11742367_at) / RFU PRRT2 (11749266_a_at) / Fold change /veh PRRT2 (11749266_a_at) / RFU SNX32 (11753110_a_at) / Fold change /veh SNX32 (11753110_a_at) / RFU CDHR5 (11726645_a_at) / Fold change /veh CDHR5 (11726645_a_at) / RFU RCAN1 (11760418_a_at) / Fold change /veh RCAN1 (11760418_a_at) / RFU FAM167A (11723789_a_at) / Fold change /veh FAM167A (11723789_a_at) / RFU FAM26E (11764081_at) / Fold change /veh FAM26E (11764081_at) / RFU ISYNA1 (11749810_s_at) / Fold change /veh ISYNA1 (11749810_s_at) / RFU ACY1 (11761880_at) / Fold change /veh ACY1 (11761880_at) / RFU 11764098_at / Fold change /veh 11764098_at / RFU SAMD14 (11745864_x_at) / Fold change /veh SAMD14 (11745864_x_at) / RFU NPB (11741838_a_at) / Fold change /veh NPB (11741838_a_at) / RFU TMPRSS6 (11731388_a_at) / Fold change /veh TMPRSS6 (11731388_a_at) / RFU KRTAP10-2 (11738614_at) / Fold change /veh KRTAP10-2 (11738614_at) / RFU ARHGAP8 /// PRR5-ARHGAP8 (11727945_x_at) / Fold change /veh ARHGAP8 /// PRR5-ARHGAP8 (11727945_x_at) / RFU KRTAP5-7 /// NADSYN1 (11734609_at) / Fold change /veh KRTAP5-7 /// NADSYN1 (11734609_at) / RFU RASL12 (11751679_a_at) / Fold change /veh RASL12 (11751679_a_at) / RFU CDKN2B (11736163_a_at) / Fold change /veh CDKN2B (11736163_a_at) / RFU PRF1 (11729649_at) / Fold change /veh PRF1 (11729649_at) / RFU, ZNF638 /// ZNF638-IT1 / Fold change vs veh, ZNF638 /// ZNF638-IT1 / RFU, PANK3 / Fold change vs veh, PANK3 / RFU, SH3YL1 / Fold change vs veh, SH3YL1 / RFU, ZEB2 / Fold change vs veh, ZEB2 / RFU, NRIP1 / Fold change vs veh, NRIP1 / RFU, PTTG1IP / Fold change vs veh, PTTG1IP / RFU, CAPN2 / Fold change vs veh, CAPN2 / RFU, MED14 / Fold change vs veh, MED14 / RFU, SNORA58 / Fold change vs veh, SNORA58 / RFU, C1orf63 / Fold change vs veh, C1orf63 / RFU, LRRFIP1 / Fold change vs veh, LRRFIP1 / RFU, NDUFAF7 / Fold change vs veh, NDUFAF7 / RFU, SLC12A2 / Fold change vs veh, SLC12A2 / RFU, IBTK / Fold change vs veh, IBTK / RFU, ESF1 / Fold change vs veh, ESF1 / Fold change vs veh, TMEM50B / RFU, TAOK1 / Fold change vs veh, TAOK1 / RFU, ACBD3 / Fold change vs veh, ACBD3 / RFU, TMA16 / Fold change vs veh, TMA16 / RFU, RWDD3 / Fold change vs veh, RWDD3 / RFU, BCAT1 / Fold change vs veh, BCAT1 / RFU, EDEM3 / Fold change vs veh, EDEM3 / RFU, TMEM33 / Fold change vs veh, TMEM33 / RFU, WDR75 / Fold change vs veh, WDR75 / RFU, AHCTF1 / Fold change vs veh, AHCTF1 / RFU, TFRC / Fold change vs veh, TFRC / RFU, ZDHHC17 / Fold change vs veh, ZDHHC17 / RFU, NOM1 / Fold change vs veh, NOM1 / RFU, ARL8B / Fold change vs veh, ARL8B / RFU, ZBTB11 / Fold change vs veh, ZBTB11 / RFU, TAMM41 / Fold change vs veh, TAMM41 / RFU, KIAA1704 /// LOC100996395 / Fold change vs veh, KIAA1704 /// LOC100996395 / RFU, ING1 / Fold change vs veh, ING1 / RFU, TRMT61B / Fold change vs veh, TRMT61B / RFU, FUBP3 / Fold change vs veh, FUBP3 / RFU, TP53 / Fold change vs veh, TP53 / RFU, TNKS2 / Fold change vs veh, TNKS2 / RFU, ZFP14 / Fold change vs veh, ZFP14 / RFU, ACTR2 / Fold change vs veh, ACTR2 / RFU, PPP3R1 / Fold change vs veh, PPP3R1 / RFU, PIK3R1 / Fold change vs veh, PIK3R1 / RFU, HNRNPA1 / Fold change vs veh, HNRNPA1 / RFU, RNF170 / Fold change vs veh, RNF170 / RFU, ZNF28 / Fold change vs veh, ZNF28 / RFU, RNGTT / Fold change vs veh, RNGTT / RFU, OGT / Fold change vs veh, OGT / RFU, BRD1 / Fold change vs veh, BRD1 / RFU, MARS / Fold change vs veh, MARS / RFU, ZNF655 / Fold change vs veh, ZNF655 / RFU, FAHD1 / Fold change vs veh, FAHD1 / RFU, BDP1 / Fold change vs veh, BDP1 / RFU, LRRCC1 / Fold change vs veh, LRRCC1 / RFU, ARID1A / Fold change vs veh, ARID1A / RFU, ZNF146 / Fold change vs veh, ZNF146 / RFU, ZNF330 / Fold change vs veh, ZNF330 / RFU, GPN3 / Fold change vs veh, GPN3 / RFU, C9orf123 / Fold change vs veh, C9orf123 / RFU, N4BP2L2 / Fold change vs veh, N4BP2L2 / RFU, ARFIP1 / Fold change vs veh, ARFIP1 / RFU, FAM179B / Fold change vs veh, FAM179B / RFU, BCL10 / Fold change vs veh, BCL10 / RFU, UHRF1BP1L / Fold change vs veh, UHRF1BP1L / RFU, BET1 / Fold change vs veh, BET1 / RFU, CNOT2 / Fold change vs veh, CNOT2 / RFU, ZNF268 / Fold change vs veh, ZNF268 / Fold change vs veh, ZNF507 / RFU, DGCR2 / Fold change vs veh, DGCR2 / RFU, WDSUB1 / Fold change vs veh, WDSUB1 / Fold change vs veh, HSP90B1 /// MIR3652 / RFU, ADSS / Fold change vs veh, ADSS / RFU, GK / Fold change vs veh, GK / RFU, ZNF148 / Fold change vs veh, ZNF148 / RFU, TAF9 / Fold change vs veh, TAF9 / RFU, SLC1A5 / Fold change vs veh, SLC1A5 / RFU, SLMO2 / Fold change vs veh, SLMO2 / RFU, ABCC4 / Fold change vs veh, ABCC4 / RFU, LOC101060439 /// RAP1B / Fold change vs veh, LOC101060439 /// RAP1B / RFU, RFX7 / Fold change vs veh, RFX7 / RFU, GTPBP10 / Fold change vs veh, GTPBP10 / RFU, CNEP1R1 / Fold change vs veh, CNEP1R1 / RFU, BIVM-ERCC5 /// ERCC5 / Fold change vs veh, BIVM-ERCC5 /// ERCC5 / RFU, ILF3 / Fold change vs veh, ILF3 / RFU 11762660_at / Fold change /veh 11762660_at / RFU VCAN (11757783_s_at) / Fold change /veh VCAN (11757783_s_at) / RFU DDX43 (11728927_at) / Fold change /veh DDX43 (11728927_at) / RFU KRT8 (11758188_x_at) / Fold change /veh KRT8 (11758188_x_at) / RFU NKD1 (11759106_at) / Fold change /veh NKD1 (11759106_at) / RFU SRD5A1 (11742802_a_at) / Fold change /veh SRD5A1 (11742802_a_at) / RFU TPSAB1 /// TPSB2 (11721975_s_at) / Fold change /veh TPSAB1 /// TPSB2 (11721975_s_at) / RFU GSTM3 (11746129_a_at) / Fold change /veh GSTM3 (11746129_a_at) / RFU IL23R (11737362_x_at) / Fold change /veh IL23R (11737362_x_at) / RFU TMEM51 (11727254_a_at) / Fold change /veh TMEM51 (11727254_a_at) / RFU PIWIL2 (11732686_x_at) / Fold change /veh PIWIL2 (11732686_x_at) / RFU ORM1 (11744905_x_at) / Fold change /veh ORM1 (11744905_x_at) / RFU CCDC152 (11743942_at) / Fold change /veh CCDC152 (11743942_at) / RFU ECM1 (11717891_a_at) / Fold change /veh ECM1 (11717891_a_at) / RFU IL23R (11748794_a_at) / Fold change /veh IL23R (11748794_a_at) / RFU TNFAIP8L3 (11732012_x_at) / Fold change /veh TNFAIP8L3 (11732012_x_at) / RFU MBOAT4 (11741988_at) / Fold change /veh MBOAT4 (11741988_at) / RFU 11764193_at / Fold change /veh 11764193_at / RFU TMEM53 (11763286_at) / Fold change /veh TMEM53 (11763286_at) / RFU MAGEB2 (11727129_at) / Fold change /veh MAGEB2 (11727129_at) / RFU TMEM200A (11744735_a_at) / Fold change /veh TMEM200A (11744735_a_at) / RFU CCDC152 (11751479_a_at) / Fold change /veh CCDC152 (11751479_a_at) / RFU FAM211A (11726209_a_at) / Fold change /veh FAM211A (11726209_a_at) / RFU RGS16 (11746705_a_at) / Fold change /veh RGS16 (11746705_a_at) / RFU VCAN (11755009_s_at) / Fold change /veh VCAN (11755009_s_at) / RFU RHOB (11743442_s_at) / Fold change /veh RHOB (11743442_s_at) / RFU RGS16 (11720943_a_at) / Fold change /veh RGS16 (11720943_a_at) / RFU RGS16 (11720944_at) / Fold change /veh RGS16 (11720944_at) / RFU, VPS4B / Fold change vs veh, VPS4B / RFU, CREB1 / Fold change vs veh, CREB1 / RFU, DNAJC13 / Fold change vs veh, DNAJC13 / RFU, GNAQ / Fold change vs veh, GNAQ / RFU, CDK5R1 / Fold change vs veh, CDK5R1 / RFU, ZRANB3 / Fold change vs veh, ZRANB3 / RFU, CUL4A / Fold change vs veh, CUL4A / RFU, CCNY / Fold change vs veh, CCNY / RFU, UFL1 / Fold change vs veh, UFL1 / RFU, COG3 / Fold change vs veh, COG3 / RFU, DIAPH2 / Fold change vs veh, DIAPH2 / RFU, SKA2 / Fold change vs veh, SKA2 / RFU, AFF3 / Fold change vs veh, AFF3 / RFU, LMF1 / Fold change vs veh, LMF1 / RFU, IPO11 / Fold change vs veh, IPO11 / RFU, DFFB / Fold change vs veh, DFFB / RFU, FOXP1 / Fold change vs veh, FOXP1 / RFU, CARD8 / Fold change vs veh, CARD8 / RFU, STRN3 / Fold change vs veh, STRN3 / RFU, ADK / Fold change vs veh, ADK / RFU, RASSF2 / Fold change vs veh, RASSF2 / RFU, WIPF1 / Fold change vs veh, WIPF1 / RFU, LARP1B / Fold change vs veh, LARP1B / RFU, RASA1 / Fold change vs veh, RASA1 / RFU, RB1 / Fold change vs veh, RB1 / RFU, PPFIA1 / Fold change vs veh, PPFIA1 / RFU, MAT2A / Fold change vs veh, MAT2A / RFU, CCT5 / Fold change vs veh, CCT5 / RFU, WDR92 / Fold change vs veh, WDR92 / RFU, CUX1 / Fold change vs veh, CUX1 / RFU, TTC7A / Fold change vs veh, TTC7A / RFU, TMEM135 / Fold change vs veh, TMEM135 / RFU, DEPTOR / Fold change vs veh, DEPTOR / RFU, CPM / Fold change vs veh, CPM / RFU, DNAJB6 / Fold change vs veh, DNAJB6 / RFU, CACNA2D3 / Fold change vs veh, CACNA2D3 / RFU, DTX4 / Fold change vs veh, DTX4 / RFU, TFCP2 / Fold change vs veh, TFCP2 / RFU, GMCL1 /// GMCL1P1 / Fold change vs veh, GMCL1 /// GMCL1P1 / RFU, AEBP2 / Fold change vs veh, AEBP2 / RFU, SNHG1 /// SNORD22 /// SNORD25 /// SNORD26 /// SNORD27 /// SNORD28 /// SNORD29 /// SNORD31 / Fold change vs veh, SNHG1 /// SNORD22 /// SNORD25 /// SNORD26 /// SNORD27 /// SNORD28 /// SNORD29 /// SNORD31 / Fold change (Aza/veh), C12orf56 (ProbeSet 11735607_a_at) / Fold change (ACY-1035/veh), C12orf56 (ProbeSet 11735607_a_at) / Fold change (Aza/veh), FGFR1OP (ProbeSet 11751329_s_at) / Fold change (ACY-1035/veh), FGFR1OP (ProbeSet 11751329_s_at) / Fold change (Aza/veh), VPS36 (ProbeSet 11739960_a_at) / Fold change (ACY-1035/veh), VPS36 (ProbeSet 11739960_a_at) / RFU SYPL1 (11715823_x_at) / Fold change /veh SYPL1 (11715823_x_at) / RFU IGFBP7 (11715501_s_at) / Fold change /veh IGFBP7 (11715501_s_at) / RFU REEP3 (11722064_at) / Fold change /veh REEP3 (11722064_at) / RFU IGLL1 (11728026_x_at) / Fold change /veh IGLL1 (11728026_x_at): dose or concentration left out as unconfirmed", "conditions": "MV-4-11 cells, 48 hours", "data": [{"smiles": "Nc1ccc(-c2cccs2)cc1NC(=O)c1ccc2c(c1)cc(C1CC1)n2CCN1CCOCC1", "note": "[ACY-1035]", "values": [{"measurement": "RFU HAMP (11756126_x_at)", "value": 352.00, "unit": "RFU"}]}]}
